A word on the IC50: it is the concentration that gives 50% inhibition.

This is an account of results in patent US20230063457A1, “DNA-PK INHIBITING COMPOUNDS” (Provincial Health Services Authority, priority 2019, published 2023).

The first test deals with DNA-PK kinase (Homo sapiens, UniProt P78527). As to the kind of experiment: Inhibition of DNA-PK kinase activity (ADP-Glo). Conditions: averaged values over all measurements on all batches; 150 μM ATP, 1 hour at 25° C. In kind it is biochemical. How it is done: Inhibition of DNA-PK Kinase Activity Assay buffer was 50 mM Hepes pH 7.5 containing 0.1 mg/ml BSA (albumin from bovine serum), 50 μM DTT (dithiothreitol), 20 mM MgCl2 and 10 μg/ml calf thymus DNA (activation buffer). Kinase reaction was carried out in OptiPlate 384 plates (PerkinElmer 6007299). All compounds tested were dissolved in dimethyl sulfoxide (DMSO) and further dilutions were made in assay buffer. Final DMSO concentration was 1% (v/v). Pre-incubation consisted of compound (1% DMSO in control and blank wells) and 24 ng/well DNA-PK kinase to allow the compounds to bind the enzyme (with buffer in the blank wells) for 15 minutes; after this time 150 μM Adenosine-5′-triphosphate (ATP) and 0.2 μg/μl DNA-PK substrate were added to commence the kinase reaction. Incubations were carried out for 1 hour at 25° C. Kinase activity was determined by using ADP-Glo™ reagent from Promega according to the manufacturer's instructions. The light generated was measured using a luminometer (EnVision, PerkinElmer). Signal obtained in the wells containing blank samples was subtracted from all other wells and IC50 values were determined by fitting a sigmoidal curve to % inhibition of control versus Log10 compound concentration.
On the technique in general: ADP-Glo first removes unused ATP, then detects ADP through luciferase.
In turn, `c1cnc2cc(N3CCOCC3)nc(O[C@H]3CC[C@@H](c4nnc[nH]4)CC3)c2c1` [Example 71] gave an IC50 of 2 nM.

`Oc1ccnc(NCC2CCN(c3nc(N4CCOCC4)cc4ncccc34)CC2)n1` [Example 113] returned an IC50 of 114 nM.

`C[C@H]1CN(c2ncn[nH]2)CC[C@@H]1Oc1nc(N2CCOCC2)cc2ncccc12` (single isomer, unassigned) [Parent compound 158] gave an IC50 of 102 nM.

Regarding `Cc1ccnc(NCC2CCN(c3nc(N4CCOCC4)cc4ncccc34)CC2)n1` [Example 109], it took 76 nM to reach half-maximal inhibition (IC50).

Take `c1cnc2cc(N3CCOCC3)nc(OC[C@H]3CC[C@@H](c4ncn[nH]4)CC3)c2c1` [Example 73]: half-maximal inhibition (IC50) was put at 55 nM.

`c1cnc2cc(N3CCOCC3)nc(O[C@H]3CC[C@@H](n4cncn4)CC3)c2c1` [Example 80] yielded an IC50 of 7 nM.

Compound `C[C@@H]1CN(c2cc3ncccc3c(O[C@H]3CC[C@@H](c4nc[nH]n4)CC3)n2)CCO1` [Example 66] had an IC50 of 3 nM.

Turning to `NC(=O)[C@H]1CC[C@@H](Oc2nc(N3CCOCC3)cc3ncccc23)CC1` [Example 3], the midpoint of inhibition, the IC50, lay at 9 nM.

For `Fc1ccnc(NCC2CCN(c3nc(N4CCOCC4)cc4ncccc34)CC2)c1` [Example 132], the IC50 came to 82 nM.

Take `c1cnc(NC2CCCCN(c3nc(N4CCOCC4)cc4ncccc34)C2)nc1` (stereo not shown) [Example 20]: the IC50 is 159 nM.

Take `c1cnc2cc(N3CCOCC3)nc(OCC3CCN(c4ncn[nH]4)CC3)c2c1` [Parent compound 154]: half-maximal inhibition (IC50) was put at 26 nM.

`c1cnc(NC2CCC3CN(c4nc(N5CCOCC5)cc5ncccc45)CC32)nc1` (stereo not shown) [Example 13] gave an IC50 of 71 nM.

Regarding `N#C[C@H]1CC[C@@H](Oc2nc(N3CCOCC3)cc3ncccc23)CC1` [Example 4], the IC50 stood at 37 nM.

`c1cnc2cc(N3CCOCC3)nc(O[C@H]3CC[C@@H](c4ncc[nH]4)CC3)c2c1` [Example 75]: half-maximal inhibition (IC50) was put at 5 nM.

`c1cnc2cc(N3CCOCC3)nc(O[C@H]3CC[C@@H](n4ccnn4)CC3)c2c1` [Example 79] displayed an IC50 of 6 nM.

As for `Oc1cnc2cc(N3CCOCC3)nc(O[C@H]3CC[C@@H](c4nccs4)CC3)c2c1` [Example 168], the IC50 came out at 5 nM.

In the case of `c1cnc(N2CCC(COc3nc(N4CCOCC4)cc4ncccc34)CC2)nc1` [Example 129], the IC50 came to 44 nM.

The compound `c1cnc2cc(N3CCOCC3)nc(N3CCC(CNc4nnc[nH]4)CC3)c2c1` [Parent compound 153] registered an IC50 of 30 nM.

The compound `N#Cc1cnc(NCC2CCN(c3nc(N4CCOCC4)cc4ncccc34)CC2)nc1N` [Example 103] gave an IC50 of 45 nM.

For `CS(=O)(=O)N1CCC(Oc2nc(N3CCOCC3)cc3ncccc23)CC1` [Example 143], the IC50 stood at 110 nM.

Compound `CC1CN(c2ncn[nH]2)CCC1Oc1nc(N2CCOCC2)cc2ncccc12` (stereo not shown) [Example 157] showed an IC50 of 160 nM.

As for `Fc1cnc(NCC2CCN(c3nc(N4CCOCC4)cc4ncccc34)CC2)nc1` [Example 104], the IC50 came to 50 nM.

The compound `c1cnc2cc(N3CCOCC3)nc(N3CCC(CNc4cnccn4)CC3)c2c1` [Example 114] displayed an IC50 of 117 nM.

Another test concerns the target T1, Phospho-DNA-PK in FaDu Cells (Homo sapiens, UniProt P78527).
T1 construct: host or cells: FaDu
As to the kind of experiment: Effect of compounds on phospho-DNA-PK in FaDu cells (MesoScale sandwich immunoassay). Type of test: cell-based. The note with it: 1 hour pre-incubation, 1 μg/ml Neocarzinostatin 2 hours, averaged values, read-out: MSD FaDu IC50. The procedure: Effect of Compounds on Phospho-DNA-PK in FaDu Cells
All compounds tested were dissolved in DMSO and further dilutions were made in culture medium. Final DMSO concentration was 0.3% (v/v). The human FaDu cells (ATCC) were cultured in MEM medium supplemented with Glutamax and 10% fetal calf serum (PAA). Cells were routinely maintained at densities of 0.2×10^6 cells per ml at 37° C. in a humidified 5% CO2, 95% air atmosphere. Cells were passaged twice a week, splitting back to obtain the low density. Cells were seeded in 96 well plates (Corning 3904) at 1×10^6 cells per ml media in a volume of 50 μl per well. Seeded cells were incubated at 37° C. in a humidified 5% CO2, 95% air atmosphere for 24 hours. Compounds were added (25 μl) to the cells and pre-incubated for 1 hour. 1 μg/ml DNA-damaging agent Neocarzinostatin (NCS) was added (25 μl) to a final volume of 100 μl and incubated for 2 hours at 37° C. in a humidified 5% CO2, 95% air atmosphere. After this period of time plates were removed from the incubator and the 100 μl dilutions were removed from the wells gently, prior to the addition of 75 μl cold RIPA lysis buffer with protease and phosphatase inhibitors to achieve the cells lysis, followed by shaking on a plate shaker at 4° C. for 30 minutes. At the end of this incubation, lysate was assessed for phospho-DNA-PK levels by sandwich immune-assay carried out in anti-mouse antibody coated MesoScale plates. […] Signal obtained in the wells containing blank samples was subtracted from all other wells and IC50 values were determined by fitting a sigmoidal curve to % inhibition of control versus Logo compound concentration.
For the compound `c1cnc2cc(N3CCOCC3)nc(O[C@H]3CC[C@@H](c4nnc[nH]4)CC3)c2c1` [Example 71], the IC50 was determined as 62 nM.

Turning to `Oc1ccnc(NCC2CCN(c3nc(N4CCOCC4)cc4ncccc34)CC2)n1` [Example 113], the IC50 came out at 6600 nM.

Regarding `C[C@H]1CN(c2ncn[nH]2)CC[C@@H]1Oc1nc(N2CCOCC2)cc2ncccc12` (single isomer, unassigned) [Parent compound 158], the IC50 came out at 10000 nM.

Take `Cc1ccnc(NCC2CCN(c3nc(N4CCOCC4)cc4ncccc34)CC2)n1` [Example 109]: the IC50 stood at 4830 nM.

For `c1cnc2cc(N3CCOCC3)nc(OC[C@H]3CC[C@@H](c4ncn[nH]4)CC3)c2c1` [Example 73], the IC50 was 1730 nM.

Turning to `c1cnc2cc(N3CCOCC3)nc(O[C@H]3CC[C@@H](n4cncn4)CC3)c2c1` [Example 80], the IC50 is 240 nM.

For `C[C@@H]1CN(c2cc3ncccc3c(O[C@H]3CC[C@@H](c4nc[nH]n4)CC3)n2)CCO1` [Example 66], the IC50 was found to be 265 nM.

Regarding `NC(=O)[C@H]1CC[C@@H](Oc2nc(N3CCOCC3)cc3ncccc23)CC1` [Example 3], the IC50 amounted to 361 nM.

As for `Fc1ccnc(NCC2CCN(c3nc(N4CCOCC4)cc4ncccc34)CC2)c1` [Example 132], the concentration for half-maximal inhibition (IC50) came out at 10600 nM.

Consider `c1cnc(NC2CCCCN(c3nc(N4CCOCC4)cc4ncccc34)C2)nc1` (stereo not shown) [Example 20], for which the IC50 was 8870 nM.

As to `c1cnc2cc(N3CCOCC3)nc(OCC3CCN(c4ncn[nH]4)CC3)c2c1` [Parent compound 154], the IC50 amounted to 1070 nM.

As for `c1cnc(NC2CCC3CN(c4nc(N5CCOCC5)cc5ncccc45)CC32)nc1` (stereo not shown) [Example 13], the IC50 was 2840 nM.

On to `N#C[C@H]1CC[C@@H](Oc2nc(N3CCOCC3)cc3ncccc23)CC1` [Example 4], for which the IC50 came to 1830 nM.

On to `c1cnc2cc(N3CCOCC3)nc(O[C@H]3CC[C@@H](c4ncc[nH]4)CC3)c2c1` [Example 75], for which the IC50 was determined as 57 nM.

As to `c1cnc2cc(N3CCOCC3)nc(O[C@H]3CC[C@@H](n4ccnn4)CC3)c2c1` [Example 79], the IC50 is 373 nM.

Consider `Oc1cnc2cc(N3CCOCC3)nc(O[C@H]3CC[C@@H](c4nccs4)CC3)c2c1` [Example 168], for which the IC50 was 272 nM.

`c1cnc(N2CCC(COc3nc(N4CCOCC4)cc4ncccc34)CC2)nc1` [Example 129]: the IC50 was 1310 nM.

For the compound `c1cnc2cc(N3CCOCC3)nc(N3CCC(CNc4nnc[nH]4)CC3)c2c1` [Parent compound 153], the IC50 turned out to be 2490 nM.

As for `N#Cc1cnc(NCC2CCN(c3nc(N4CCOCC4)cc4ncccc34)CC2)nc1N` [Example 103], the IC50 stood at 3700 nM.

As to `CS(=O)(=O)N1CCC(Oc2nc(N3CCOCC3)cc3ncccc23)CC1` [Example 143], the IC50 amounted to 1800 nM.

Regarding `CC1CN(c2ncn[nH]2)CCC1Oc1nc(N2CCOCC2)cc2ncccc12` (stereo not shown) [Example 157], the IC50 amounted to 3000 nM.

Consider `Fc1cnc(NCC2CCN(c3nc(N4CCOCC4)cc4ncccc34)CC2)nc1` [Example 104], for which the IC50 came out at 3020 nM.

For the compound `c1cnc2cc(N3CCOCC3)nc(N3CCC(CNc4cnccn4)CC3)c2c1` [Example 114], the IC50 came out at 9670 nM.
